We go through 2 compounds from US20190359645A1, “2'3'-CYCLIC DINUCLEOTIDES COMPRISING CARBOCYCLIC NUCLEOTIDE” (Institute of Organic Chemistry and Biochemistry ASCR, V.V.I., priority 2018, published 2019).

The test concerns the target WT STING (Homo sapiens, UniProt Q86WV6, H232R). The test is described as follows: 293T wt STING reporter assay. Type of test: cell-based. Also on record: host or cells: 293T (ATCC CRL-3216), stably transfected; also carries the 4xISRE firefly luciferase reporter. As to conditions: 293T wtSTING-FL cells, no digitonin, 7 h incubation, ISRE firefly luciferase reporter. The source says: Two complementary oligonucleotides of the sequence […] […] […] […] (SEQ ID NO: 1) and […] […] (SEQ ID NO:2) containing four interferon-sensitive response elements (ISRE) were synthesized by Sigma Aldrich (Czech Republic, Prague). The oligonucleotides were mixed in equal molar amounts, hybridized, and cleaved by restriction endonucleases HindIII (cat. #. R^0104S, NEB, Ipswich, USA) and BglII (cat. # R^0144S, NEB, Ipswich, USA). Ultimately, they were ligated into plasmid pGL4.27 (cat. # E6651, Promega, Madison, USA) linearized with the same enzymes. As a result, the sequence with four ISRE sites was placed upstream of the minimum promoter of firefly luciferase reporter gene.
293T cells (cat. # CRL-3216, ATCC, Manassas, USA) were seeded a day before transfection at density 125,000 cells per cm^2 onto poly-D-lysine (cat. # P6407, Sigma Aldrich, Czech Republic) coated six well plates in antibiotic free DMEM with high glucose (cat. # D5796, Sigma Aldrich, Czech Republic) supplemented with 10% heat inactivated FBS (cat. # S1520, Biowest, Riverside, USA). […]
In general terms: In a reporter assay the amount or activity of a reporter protein is the signal.

The structures appear in SMILES notation.

Chain of WT STING (Q86WV6 whole entry H232R): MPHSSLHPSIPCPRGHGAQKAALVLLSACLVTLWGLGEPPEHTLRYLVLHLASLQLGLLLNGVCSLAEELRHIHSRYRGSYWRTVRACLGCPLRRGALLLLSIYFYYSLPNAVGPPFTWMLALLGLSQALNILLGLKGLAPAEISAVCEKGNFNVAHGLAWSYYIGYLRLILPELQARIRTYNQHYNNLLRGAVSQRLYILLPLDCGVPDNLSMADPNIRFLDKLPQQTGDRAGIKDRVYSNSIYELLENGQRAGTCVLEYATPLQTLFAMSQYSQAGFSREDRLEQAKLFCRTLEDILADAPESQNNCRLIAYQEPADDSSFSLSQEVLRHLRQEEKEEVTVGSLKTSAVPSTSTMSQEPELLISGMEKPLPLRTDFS

For the compound `Nc1ncnc2c1ncn2[C@@H]1O[C@@H]2COP(=O)(S)O[C@@H]3[C@H](F)[C@@H](COP(=O)(S)O[C@H]2[C@H]1F)C[C@H]3n1cnc2c(=O)[nH]cnc21` (single isomer, unassigned) [Compound 128d], the response was half-maximal at 0.5 µM (EC50).
For `Nc1ncnc2c1ncn2[C@@H]1O[C@@H]2COP(=O)(S)O[C@@H]3[C@H](F)[C@@H](COP(=O)(S)O[C@H]2[C@H]1F)C[C@H]3n1cnc2c(=O)[nH]cnc21` (single isomer, unassigned) [Compound 128a] the value was 11 µM.

The EC50 is the midpoint of the concentration-response curve.
